What was measured:
[1] = system: diabetes-associated dementia model (STZ injected into the cerebral ventricles of mice); test: Morris water maze probe test (spatial memory) in mice given streptozotocin intracerebroventricularly; format: in vivo, C57BL/6 mice; conditions: for Residence time in the quadrant where the platform was previously located: mean ± SE
Excerpt: (§1) Male C57BL/6 mice (20-22 g), 6 weeks old, were purchased from Japan SLC, Inc., and acclimated for one week. All mice (3-5 mice per cage) were maintained under specific pathogen-free conditions with a 12-hour light/dark cycle in a temperature and humidity-controlled room, with free access to food and water. Mouse diet (D12450B) was purchased from Research Diets, Inc. After the experiment, mice were anesthetized with 4% isoflurane vapor using a simple inhalation anesthesia device (NARCOBIT-E, Natsume Seisakusho Co., Ltd.) and euthanized by cardiac puncture for whole blood collection.
(§2) LPS (Pantoea agglomerans LPS mac0001, Macrophi Inc.), prepared and purified according to the fermentation culture method (PTL 2) developed by Soma et al., was used. LPS was administered orally by dissolving LPS in drinking water (sterilized distilled water) at a dose of 1 mg/kg body weight/day. The LPS dosage was based on previous studies (NPL 8, 9). Drinking water was replaced weekly, and LPS concentration was adjusted according to average body weight and water intake. The LPS used is a substance present in the environment, consumed to some extent in daily life, and has also been added to food and cosmetics. LPS, when orally fed, enhances the functionality of phagocytes (macrophages) in the peritoneal cavity and brain (NPL 8, 9). Activated phagocytes have the function of repairing damaged tissues in the body. LPS may be derived from plant symbiotic bacteria with food experience, such as Pantoea, Enterobacter, Xanthomonas, Acetobacteraceae, and Zymomonas, but the specific strain is not limited as long as it is LPS.
We used a method of directly administering STZ into the cerebral ventricles as a model of the diabetes-associated dementia that causes spatial memory deterioration without increasing blood glucose levels (NPL 7). STZ was purchased from Sigma-Aldrich Co. LLC. […] After surgery, mice were monitored daily for pain/discomfort and infection according to guidelines. […]

[2] = system: diabetes-associated dementia model (STZ injected into the cerebral ventricles of mice); test: Morris water maze training test (spatial learning) in mice given streptozotocin intracerebroventricularly; format: in vivo, C57BL/6 mice
Excerpt: as §1, §2
We used a method of directly administering STZ into the cerebral ventricles as a model of the diabetes-associated dementia that causes spatial memory deterioration without increasing blood glucose levels (NPL 7). STZ was purchased from Sigma-Aldrich Co. LLC. After anesthetizing with 4% isoflurane using a stereotaxic apparatus SR-5M-HT (Narishige Co., Ltd.), STZ (2.0 mg/mouse, dissolved in 5 μl saline) was injected singly into the right lateral ventricle using a microinjector IMS-20 and micromanipulator SMM-100 (Narishige Co., Ltd.). The stereotaxic coordinates were +0.3 mm anterior, +1.0 mm lateral (right), and +2.5 mm ventral from the intersection of the sagittal and coronal sutures. After suturing the skin, an appropriate amount of antibiotic ointment (20 mg/g chloramphenicol, 5 mg/g fradiomycin, 100,000 U/g nystatin, Daiichi Sankyo Healthcare Co., Ltd.) was applied to the wound. For non-STZ control mice, 5 μl of saline was injected into the right lateral ventricle. After surgery, mice were monitored daily for pain/discomfort and infection according to guidelines. 5 μL of 5% trypan blue (Nacalai Tesque, Inc.) was administered intracerebroventricularly to confirm proper needle placement.
For the prevention experiment of LPS oral administration against the diabetes-associated dementia, mice were given free access to LPS in drinking water (1 mg/kg body weight/day for 33 days until the end of the test) from one week before STZ administration until the end of the experiment. Cognitive assessment tests (Morris water maze test) were conducted 3 weeks after STZ administration (4 weeks after starting LPS oral intake). 17-19 mice were used for each group.
For the treatment experiment of LPS oral administration against the diabetes-associated dementia, cognitive assessment tests (Morris water maze test) were conducted 12 days after STZ administration to confirm cognitive function decline. From 20 days after STZ administration, mice were given free access to LPS in drinking water (1 mg/kg body weight/day for 25 days until the end of the test). Cognitive assessment tests (Morris water maze test) were conducted 40 days after STZ administration (day 20 of LPS oral intake).
The Morris water maze test consists of tests evaluating spatial learning ability (training test) and spatial memory ability (probe test). […]

[3] = training test starting 12 days after icv STZ 2.0 mg/mouse, before LPS treatment, mean ± SE
[4] = treatment experiment, training test starting 40 days after icv STZ, LPS 1 mg/kg body weight/day in drinking water from day 20 after STZ

CN(N=O)C(=O)N[C@H]1C(O)O[C@H](CO)[C@@H](O)[C@@H]1O (mixture of isomers) [STZ, streptozotocin]
Spatial memory ability (residence time in the target quadrant, FIG. 2) ([1]; prevention experiment, LPS 1 mg/kg body weight/day in drinking water from one week before icv STZ, probe test the day after training): significantly shorter residence time in the target quadrant compared to the Saline group
Residence time in the quadrant where the platform was previously located ([1]; probe test 16 days after icv STZ 2.0 mg/mouse, before LPS treatment, 60-second test): 18.0 ± 2.83 s
Residence time in the quadrant where the platform was previously located ([1]; treatment experiment, probe test 44 days after icv STZ, LPS 1 mg/kg body weight/day in drinking water from day 20 after STZ): 24.1 ± 8.73 s
Spatial learning ability (platform travel time over 4 days of training, FIG. 1) ([2]; prevention experiment, LPS 1 mg/kg body weight/day in drinking water from one week before icv STZ, test three weeks after STZ): inhibited reduction in platform travel time compared to the Saline group
Travel time (time required to reach the platform), training day 1 [2, 3]: 55.1 ± 2.14 s
Travel time (time required to reach the platform), training day 2 [2, 3]: 43.8 ± 7.00 s
Travel time (time required to reach the platform), training day 3 [2, 3]: 40.4 ± 7.09 s
Travel time (time required to reach the platform), training day 4 [2, 3]: 33.3 ± 6.74 s
Travel time (time required to reach the platform), training day 1 [2, 4]: 44.42 ± 3.81 s
Travel time (time required to reach the platform), training day 2 [2, 4]: 37.25 ± 10.41 s
Travel time (time required to reach the platform), training day 3 [2, 4]: 27.83 ± 7.71 s
Travel time (time required to reach the platform), training day 4 [2, 4]: 35.75 ± 10.44 s

Reference: patent publication US20250381216A1, “PROPHYLACTIC DRUG AND THERAPEUTIC DRUG FOR DIABETES-ASSOCIATED DEMENTIA” (priority 2022, published 2025)
